Measured values taken from paper PMC9232501, “Results of the phase I CCTG IND.231 trial of CX-5461 in patients with advanced solid tumors enriched for DNA-repair deficiencies” (Nature Communications, 2022).
Like-named read-outs stand apart in the source and are kept apart here.

Assay: Plasma pharmacokinetics of CX-5461 (HPLC-MS/MS, non-compartmental)
Format: in vivo, human
Details: plasma; for concentration at 48 h / concentration at 72 h / concentration at 0.5 h / concentration at 1 h / concentration at 4 h / concentration at 6 h / concentration at 0 h / concentration at 2 h / concentration at 24 h: individual patients, read-out: Day 1 CX-5461 plasma concentration
Method: PK was assessed on all patients in the escalation phase. Venous blood samples were collected on treatment days 1, 8, and 15 (where applicable), and plasma CX-5461 was analyzed with HPLC-MS/MS (schedule details in Supplementary Table 3). PK parameters were calculated with non-compartmental methods. […] The protocol was amended to allow submission of a ctDNA sample and in a further amendment, a mandatory skin biopsy (pre-treatment and cycle 1 day 15) to study phototoxic effects. Fresh tumor biopsies were optional.
Supplementary Table 3. Schedule for collection of CX5461 pharmacokinetics
During infusion at 30 minutes
Immediately post infusion then:
C1D1 30 minutes post infusion
C1D2 24 hours post infusion
C1D3 48 hours post infusion
C1D4 72 hours post infusion
Immediately post infusion then
C1D15 30 minutes post infusion
C1D16 24 hours post infusion
In addition to the specific time points listed above, additional samples were to be collected from […]

[1] = human, intravenous, 50 mg/m2, 50 mg/m2
[2] = human, intravenous, 100 mg/m2, 100 mg/m2
[3] = human, intravenous, 150 mg/m2, 150 mg/m2
[4] = human, intravenous, 200 mg/m2, 200 mg/m2
[5] = human, intravenous, 250 mg/m2, 250 mg/m2
[6] = human, intravenous, 325 mg/m2, 325 mg/m2
[7] = human, intravenous, 325 mg/m2, B: 325 mg/m2
[8] = human, intravenous, 475 mg/m2, 475 mg/m2
[9] = human, intravenous, 475 mg/m2, B: 475 mg/m2
[10] = human, intravenous, 650 mg/m2, 650 mg/m2

Cc1cnc(CNC(=O)c2c(=O)c3ccc(N4CCCN(C)CC4)nc3n3c2sc2ccccc23)cn1 [CX-5461]
concentration at 48 h [1]: 24.8 ng/mL | concentration at 72 h [1]: 13.3 ng/mL | AUC (human, intravenous, 50 mg/m2, Dose level 50 (mg/m2), one patient per datapoint, read-out: Day 1 AUC): 3240 ng·h/mL | concentration at 0.5 h [2]: 141 ng/mL | concentration at 1 h [2]: 115 ng/mL | concentration at 4 h [2]: 103 ng/mL | concentration at 6 h [2]: 83.2 ng/mL | concentration at 48 h [2]: 44.7 ng/mL | concentration at 72 h [2]: 20 ng/mL | AUC (human, intravenous, 100 mg/m2, Dose level 100 (mg/m2), one patient per datapoint, read-out: Day 1 AUC): 5240 ng·h/mL | Cmax (human, intravenous, 100 mg/m2, Dose level 100 (mg/m2), one patient per datapoint, read-out: Day 8 or 15 Cmax): 1140 ng/mL | concentration at 0 h [3]: 465 ng/mL | concentration at 0.5 h [3]: 320 ng/mL | concentration at 2 h [3]: 206 ng/mL | concentration at 4 h [3]: 200 ng/mL | concentration at 6 h [3]: 179 ng/mL | Cmax (human, intravenous, 150 mg/m2, Dose level 150 (mg/m2), one patient per datapoint, read-out: Day 1 Cmax): 465 ng/mL | AUC (human, intravenous, 150 mg/m2, Dose level 150 (mg/m2), one patient per datapoint, read-out: Day 8 or 15 AUC): 19600 ng·h/mL | concentration at 24 h [4]: 72.8 ng/mL | concentration at 72 h [4]: 31.4 ng/mL | concentration at 0 h [5]: 867 ng/mL | concentration at 0.5 h [5]: 420 ng/mL | concentration at 1 h [5]: 423 ng/mL | concentration at 2 h [5]: 369 ng/mL | concentration at 4 h [5]: 233 ng/mL | concentration at 24 h [5]: 197 ng/mL | concentration at 48 h [5]: 106 ng/mL | concentration at 72 h [5]: 85.4 ng/mL | AUC (human, intravenous, 250 mg/m2, Dose level 250 (mg/m2), one patient per datapoint, read-out: Day 1 AUC): 12400 ng·h/mL | AUC (human, intravenous, 250 mg/m2, Dose level 250 (mg/m2), one patient per datapoint, read-out: Day 8 or 15 AUC): 19000 ng·h/mL | concentration at 0 h [6]: 1310 ng/mL | concentration at 0.5 h [6]: 446 ng/mL | concentration at 1 h [6]: 400 ng/mL | concentration at 2 h [6]: 395 ng/mL | concentration at 4 h [6]: 244 ng/mL | concentration at 6 h [6]: 291 ng/mL | concentration at 24 h [6]: 232 ng/mL | concentration at 48 h [6]: 138 ng/mL | concentration at 72 h [6]: 110 ng/mL | concentration at 1 h [7]: 297 ng/mL | concentration at 2 h [7]: 308 ng/mL | concentration at 4 h [7]: 252 ng/mL | concentration at 6 h [7]: 271 ng/mL | concentration at 48 h [7]: 203 ng/mL | concentration at 72 h [7]: 107 ng/mL | AUC (human, intravenous, 325 mg/m2, Dose level 325 (mg/m2), one patient per datapoint, read-out: Day 1 AUC): 15000 ng·h/mL | Cmax (human, intravenous, 325 mg/m2, Dose level 325 (mg/m2), one patient per datapoint, read-out: Day 1 Cmax): 1310 ng/mL | AUC (human, intravenous, 325 mg/m2, Dose level 325 (mg/m2), one patient per datapoint, read-out: Day 8 or 15 AUC): 24600 ng·h/mL | Cmax (human, intravenous, 325 mg/m2, Dose level 325 (mg/m2), one patient per datapoint, read-out: Day 8 or 15 Cmax): 1440 ng/mL | AUC (human, intravenous, 325 mg/m2, Dose level B: 325 (mg/m2), one patient per datapoint, read-out: Day 1 AUC): 25200 ng·h/mL | Cmax (human, intravenous, 325 mg/m2, Dose level B: 325 (mg/m2), one patient per datapoint, read-out: Day 1 Cmax): 822 ng/mL | concentration at 0 h [8]: 1540 ng/mL | concentration at 0.5 h [8]: 475 ng/mL | concentration at 1 h [8]: 480 ng/mL | concentration at 2 h [8]: 445 ng/mL | concentration at 4 h [8]: 293 ng/mL | concentration at 6 h [8]: 274 ng/mL | concentration at 24 h [8]: 242 ng/mL | concentration at 48 h [8]: 140 ng/mL | concentration at 72 h [8]: 104 ng/mL | concentration at 0.5 h [9]: 890 ng/mL | concentration at 1 h [9]: 698 ng/mL | concentration at 4 h [9]: 424 ng/mL | concentration at 48 h [9]: 336 ng/mL | concentration at 72 h [9]: 219 ng/mL | AUC (human, intravenous, 475 mg/m2, Dose level 475 (mg/m2), one patient per datapoint, read-out: Day 1 AUC): 15800 ng·h/mL | Cmax (human, intravenous, 475 mg/m2, Dose level 475 (mg/m2), one patient per datapoint, read-out: Day 1 Cmax): 1850 ng/mL | Cmax (human, intravenous, 475 mg/m2, Dose level 475 (mg/m2), one patient per datapoint, read-out: Day 8 or 15 Cmax): 1680 ng/mL | Cmax (human, intravenous, 475 mg/m2, RP2D 475 mg/m^2 d1,8,15, read-out: average day 1 Cmax): 1740 ± 801 ng/mL | Cmax (human, intravenous, 475 mg/m2, RP2D 475 mg/m^2 d1,8,15, read-out: day 15 Cmax): 2870 ± 2310 ng/mL | half-life (human, intravenous, 475 mg/m2, RP2D 475 mg/m^2 d1,8,15, read-out: elimination half-life (t1/2), day 1 (converted)): 2.56 ± 0.646 days | half-life (human, intravenous, 475 mg/m2, RP2D 475 mg/m^2 d1,8,15, read-out: elimination half-life (t1/2), day 15 (converted)): 2.46 ± 0.467 days | concentration at 14 days (human, intravenous, 475 mg/m^2, 14 days after the prior dose, read-out: mean trough plasma level prior to cycle 2 day 1): 49.1 ± 34.5 ng/mL | concentration at 0 h [10]: 953 ng/mL | concentration at 0.5 h [10]: 1040 ng/mL | concentration at 2 h [10]: 712 ng/mL | concentration at 4 h [10]: 495 ng/mL | concentration at 48 h [10]: 222 ng/mL | AUC (human, intravenous, 650 mg/m2, Dose level 650 (mg/m2), one patient per datapoint, read-out: Day 1 AUC): 26800 ng·h/mL | elimination: eliminated slowly
